In paper PMC7911220, “Monoterpenoids from the Fruits of Amomum tsao-ko Have Inhibitory Effects on Nitric Oxide Production” (Plants, 2021):
Read-outs that look alike come from different tables or passages of the source.

What was measured:
[1] = system: RAW264.7 macrophage cells; test: MTT assay for cell viability; conditions: RAW 264.7 cells, LPS-stimulated
Protocol: (§1) To obtain plant-derived inhibitors of NO as potential lead compounds for treating inflammation disorders, monoterpene constituents 1–6 isolated from the fruits of A. tsao-ko were assayed to determine their inhibitory activities on LPS-induced NO production in murine macrophage RAW 264.7 cells via the Griess reaction assay, as described previously.
(§2) Mouse RAW264.7 macrophage cells (TIB-71) were maintained in Dulbecco’s modified Eagle medium (DMEM) supplemented with 10% fetal bovine serum (FBS), 100 U/mL penicillin, and 0.1 mg/mL streptomycin in a humidified incubator with 5% CO2 at 37 °C.
(§3) The Griess reaction was performed to measure the concentration of nitrite in the medium as an indicator of NO production. RAW264.7 macrophage cells were cultured in a 96-well plate after seeding at a density of 4 × 10^5 cells/well for 24 h in DMEM supplemented with 10% FBS, and stimulated with or without LPS (1 μg/mL, Sigma Aldrich, St. Louis, MO, USA) in the presence or absence of the compounds. After 24 h of incubation at 37 °C, 5% CO2, the cell supernatant was reacted with equal volumes of Griess reagent solutions to determine nitrite production. Absorbance was measured with a microplate reader (Molecular Devices, Sanjose, CA, USA) at 540 nm. Cell viability was confirmed via MTT (Duchefa Biochemie, Haarlem, The Netherlands) assay. The supernatant was removed and medium containing MTT solution (5 mg/mL in phosphate-buffered saline) was added to each well and incubated for 2 h. The medium was removed, and 100 μL of dimethyl sulfoxide (Duchefa Biochemie, Haarlem, The Netherlands) was added to each well to dissolve the purple formazan product to obtain a colored solution. Absorbance was measured at 540 nm with a microplate reader.

[2] = system: LPS-induced NO production in RAW 264.7 cells; test: LPS-induced NO production, Griess reaction assay; format: cell-based, mouse; conditions: read-out: IC50, inhibition of LPS-induced NO production
Protocol: as §1, §2, §3

[3] = system: IL-1β mRNA; test: RT-PCR of IL-1β mRNA in LPS-stimulated RAW264.7 cells; format: cell-based, mouse; conditions: 10, 50, 100 μM for 1 h, then LPS 1 μg/mL 24 h, normalized to GAPDH
Protocol: (§4) Figure 2 Effects of (1R,4S,6S)-1,6-dihydroxy-2-menthene (compound 4) on iNOS protein and pro-inflammatory cytokine mRNA expression in LPS-stimulated RAW264.7 cells. RAW264.7 cells were pretreated with different concentrations (10, 50, 100 μM) of compound 4 for 1 h, and then stimulated with 1 µg/mL LPS for 24 h. (A,B) Western blot analysis of iNOS expression in cells treated with compound 4 (10, 50, 100 μM). β-Actin was used as a loading control. (C,D) Levels of iNOS, IL-1β, and IL-6 mRNAs were determined via RT-PCR. RT-PCR data results were expressed as the fold of changes of the target gene (iNOS, IL-1β, and IL-6) and normalized to the GAPDH. Values represent the mean ± SD of three independent experiments. […]
(§5) Next, we confirmed the effect of compound 4 on the expression of inflammatory factors, i.e., iNOS, IL-1β, and IL-6 in LPS-stimulated RAW264.7 cells. […] We measured the levels of the relevant mRNAs via reverse transcription polymerase chain reaction (RT-PCR). […]
(§6) RAW264.7 cells, plated in 6-well plates (1 × 10^6 cells/well), were treated with compound 4 (10, 50, and 100 μM) for 1 h prior to LPS, and stimulated with 1 μg/mL LPS or remained unstimulated for 24 h. […] The bands of interest were quantified using the ChemiDoc XRS system and Quantity One software (Bio-Rad Laboratories, Hercules, CA, USA).

[4] = system: iNOS mRNA; test: RT-PCR of iNOS mRNA in LPS-stimulated RAW264.7 cells; format: cell-based, mouse; conditions: 10, 50, 100 μM for 1 h, then LPS 1 μg/mL 24 h, normalized to GAPDH
Protocol: as §4, §5, §6

[5] = system: IL-6 mRNA; test: RT-PCR of IL-6 mRNA in LPS-stimulated RAW264.7 cells; format: cell-based, mouse; conditions: 10, 50, 100 μM for 1 h, then LPS 1 μg/mL 24 h, normalized to GAPDH
Protocol: as §4, §5, §6

[6] = system: iNOS protein expression; test: Western blot analysis of iNOS protein expression in LPS-stimulated RAW264.7 cells; format: cell-based, mouse; conditions: pretreatment 10, 50, 100 μM for 1 h, then LPS 1 μg/mL 24 h
Source text: L-Arginine-derived NO is an intracellular signaling molecule formed in mammalian cells by different three isoforms of nitric oxide synthase (NOS). The isozymes are referred to as neuronal NOS (nNOS or NOS I), inducible NOS (iNOS or NOS II), and an endothelial NOS (eNOS or NOS III). Excessive generation of NO by iNOS is seen in inflammatory diseases such as autoimmune and chronic inflammatory disorders. To examine the mechanism of NO inhibition by active compound 4, we evaluated iNOS protein expression via western blotting.
Figure 2 Effects of (1R,4S,6S)-1,6-dihydroxy-2-menthene (compound 4) on iNOS protein and pro-inflammatory cytokine mRNA expression in LPS-stimulated RAW264.7 cells. […] (C,D) Levels of iNOS, IL-1β, and IL-6 mRNAs were determined via RT-PCR. RT-PCR data results were expressed as the fold of changes of the target gene (iNOS, IL-1β, and IL-6) and normalized to the GAPDH. […]
RAW264.7 cells, plated in 6-well plates (1 × 10^6 cells/well), were treated with compound 4 (10, 50, and 100 μM). […] Protein expression was analyzed via immunoblotting with antibodies against anti-iNOS (cat. no. ab3523; dilution, 1:500, Abcam, Cambridge, UK) and β-actin (cat. no. 5125; dilution, 1:1000, Cell Signaling Technology, Danvers, MA, USA). […] The bands of interest were quantified using the imageJ software.

[7] = Mus musculus, RAW264.7, RAW 264.7 cells, LPS 1 μg/mL, 24 h, Griess reagent

SMILES | IC50 [2, 7] [µM] | MTT (cell viability) [1] [µM] | also measured
O=CC1=CC[C@@H](O)[C@H]2CCC[C@@H]12 [Compound 1, tsaokoin] | – | >100 | IC50 ([2]; Mus musculus, RAW264.7, 24 h): > 100 µM
CC(=CCO)CCCC(C)CO (stereo not drawn) [Compound 5, 3,7-dimethyl-2-octene-1,8-diol] | > 100 | >100 | –
C/C(C=O)=C\CC/C(C)=C/CO [Compound 6, 8-oxogeraniol] | > 100 | >100 | –
CC(=O)O.CNC(=N)NCCC[C@H](N)C(=O)O [NG-methyl-L-arginine acetate, reference compound] | – | >100 | IC50 ([2]; RAW 264.7 cells, LPS 1 μg/mL, 24 h, Griess reagent): 34.2 µM

Now from value to compound, other results behind:

IC50 [2, 7] [µM] | SMILES | MTT (cell viability) [1] [µM] | also measured
> 100 | CC1=C[C@@H](O)[C@H](C(C)C)C[C@H]1O [Compound 2, (3S,4S,6R)-3,6-dihydroxy-1-menthene] | >100 | –
> 100 | C=C(C)[C@H]1CC[C@@](C)(O)C[C@@H]1O [Compound 3, (1R,3S,4R)-3-hydroxy isopulegol] | >100 | –
82.5 | CC(C)[C@H]1C=C[C@@](C)(O)[C@@H](O)C1 [Compound 4, (1R,4S,6S)-1,6-dihydroxy-2-menthene] | >100 | IL-1β mRNA level [3]: reduced; iNOS mRNA expression [4]: decreased the iNOS expression at the mRNA level, in a dose-dependent manner; IL-6 mRNA level [5]: reduced; iNOS protein expression [6]: significantly and dose-dependently inhibited iNOS expression
